From patent US8211933B2, “3.3.0 bicyclic GlyT1 inhibitors and methods of making and using same” (Vanderbilt University, priority 2008, dated 2012)

biological target: T1, GlyT1 (Homo sapiens, UniProt P48067); assay: [14C]-glycine uptake in JAR cells endogenously expressing GlyT1 (Cytostar T scintillation proximity); assay type: cell-based; settings: inhibition of [14C]-glycine uptake (10 μM), JAR cells, 3 h; read-out: Potency (IC50)
T1 construct: Human placental choriocarcinoma cells endogenously expressing GlyT1 can be cultured using standard conditions; host or cells: JAR human placental choriocarcinoma cells
T1 sequence (P48067 1-706): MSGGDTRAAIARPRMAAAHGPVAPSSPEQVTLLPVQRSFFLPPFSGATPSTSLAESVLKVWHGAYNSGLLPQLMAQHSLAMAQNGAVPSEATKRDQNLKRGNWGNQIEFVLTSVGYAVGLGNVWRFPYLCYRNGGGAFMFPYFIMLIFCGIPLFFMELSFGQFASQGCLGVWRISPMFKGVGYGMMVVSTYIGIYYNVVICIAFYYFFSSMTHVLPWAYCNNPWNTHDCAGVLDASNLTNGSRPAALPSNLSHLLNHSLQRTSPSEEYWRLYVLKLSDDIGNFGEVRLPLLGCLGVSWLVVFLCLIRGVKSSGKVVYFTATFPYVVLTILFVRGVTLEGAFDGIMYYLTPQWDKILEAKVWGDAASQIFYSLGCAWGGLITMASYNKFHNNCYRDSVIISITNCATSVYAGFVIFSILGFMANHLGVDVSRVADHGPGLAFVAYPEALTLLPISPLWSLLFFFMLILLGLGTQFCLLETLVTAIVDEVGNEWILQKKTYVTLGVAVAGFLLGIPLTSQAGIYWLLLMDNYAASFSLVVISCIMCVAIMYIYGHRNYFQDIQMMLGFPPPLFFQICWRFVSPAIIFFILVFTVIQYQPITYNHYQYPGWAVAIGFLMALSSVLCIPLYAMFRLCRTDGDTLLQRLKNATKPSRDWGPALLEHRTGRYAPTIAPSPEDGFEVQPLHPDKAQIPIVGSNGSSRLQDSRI
Description: Human placental choriocarcinoma cells endogenously expressing GlyT1 can be cultured using standard conditions. Cells can then be grown at 37° C. in a humidified atmosphere 40-48 hours before the assay. Culture medium can be removed from the culture plate, and cells can be incubated with an amount of TBlA buffer with or without the compounds of the present invention for a sufficient period of time. Then an amount of [^14C]-glycine diluted with TBlA can be added to each well. After incubation the microplates can be sealed and counted. Non-specific uptake of [^14C]-glycine can be determined in the presence of unlabeled glycine. To determine potencies, a range of concentrations of the compounds of the present invention can be added to the cells, followed by the fixed concentration of [^14C]-glycine. The concentration of the present compound that inhibited half of the specific uptake of [^14C]glycine (IC50 value) can be determined from the assay data by non-linear curve fitting.
The procedure used was analogous to that disclosed in Williams, J. B.; Mallorga P. J.; Lemaire W.; Williams D. L.; Na S.; Patel S.; Conn J. P.; Pettibone D. J.; Austin C.; Sur C.; “Development of a scintillation proximity assay for analysis of Na+/Cl−-dependent neurotransmitter transporter activity,” ANAL. BIOCHEM.
Cells were plated at a density of 1.3×10^4 cells/well and grown at 37° C. in a humidified atmosphere of 5% CO2 for 40-48 h. Culture medium was removed from the Cytostar T plate and JAR cells were incubated with 30 μl A of TBlA buffer (120 mM NaC1, 2 mM KCl, 1 mM CaCl2, 1 mM MgCl2, 10 mM Hepes, 5 mM L-alanine, pH 7.5 adjusted with 1 M Tris base) with or without multiple concentrations of test compound (added at 2× final concentration) for 1 min. Then 30 μl of [^14C]-glycine (Perkin-Elmer) diluted in TBlA was added to each well to give a final concentration of 10 μM. Cytostar T plates were then incubated in the dark at room temperature for 3 h, sealed with opaque white bottom plate seals (Perkin-Elmer) and clear top plate seals (Topseal A, Perkin-Elmer), and were counted on a Top Count (Packard). Glycine uptake was determined by measuring radioactivity in each well and plotted as a function of concentration of test compound. […] Nonspecific uptake of [^14C]-glycine was determined in the presence of 10 mM cold glycine. [^14C]-taurine (American Radiolabeled Chemicals, Inc.) uptake experiments were performed according to the same protocol except that 10 mM cold taurine was used to determine nonspecific uptake. […] COS-7 cells were transiently transfected with the human GlyT2 cDNA (Origene Technologies Inc., SC303452) using Fugene 6 (Roche) according to the manufacturer's instructions in Dulbecco's modified Eagle's medium (DMEM, Invitrogen) containing 10% Fetal Bovine Serum, 10 mM HEPES, 1 mM sodium pyruvate, penicillin (100 μg/ml), and streptomycin (100 μg/ml). The following day, the cells were plated at a density of 5×10^5 cells/well in Cytostar T plates and maintained at 37° C. in a humidified atmosphere of 5% CO2 for 24 h. GlyT2 glycine uptake experiments were performed according to the same protocol previously described.

Row | IC50 [nM] | Structure (SMILES)
1 | 903 | Cn1cnc(S(=O)(=O)N2CC3CCC(NC(=O)c4ccc(F)c(F)c4)C3C2)c1 (centres unmarked) [Compound 7j, 3,4-difluoro-N-(2-(1-methyl-1H-imidazol-4-ylsulfonyl)octahydrocyclopenta[c]pyrrol-4-yl)benzamide]

same assay, conditions: read-out: Potency (IC50)

Row | Structure (SMILES) | IC50 [nM]
2 | Cn1cnc(S(=O)(=O)N2CC3CCC(NC(=O)c4ccc(Cl)cc4)C3C2)c1 (centres unmarked) [Compound 7c, 4-chloro-N-(2-(1-methyl-1H-imidazol-4-ylsulfonyl)octahydrocyclopenta[c]pyrrol-4-yl)benzamide] | 1030
3 | Cn1cnc(S(=O)(=O)N2CC3CCC(NC(=O)c4ccccc4F)C3C2)c1 (centres unmarked) [Compound 7f, 2-fluoro-N-(2-(1-methyl-1H-imidazol-4-ylsulfonyl)octahydrocyclopenta[c]pyrrol-4-yl)benzamide] | 1800
4 | Cn1cnc(S(=O)(=O)N2CC3CCC(NC(=O)c4ccc(F)cc4)C3C2)c1 (centres unmarked) [Compound 7h, 4-fluoro-N-(2-(1-methyl-1H-imidazol-4-ylsulfonyl)octahydrocyclopenta[c]pyrrol-4-yl)benzamide] | 2200
5 | CCCS(=O)(=O)N1CC2CCC(NC(=O)c3ccc(Cl)cc3Cl)C2C1 (centres unmarked) [Compound 71, 2,4-dichloro-N-(2-(propylsulfonyl)octahydrocyclopenta[c]pyrrol-4-yl)benzamide] | 7000

Second part, the molecule after the results:

Row | IC50 [nM] | Structure (SMILES)
6 | 925 | Cn1cnc(S(=O)(=O)N2CC3CCC(NC(=O)c4ccc(F)cc4F)C3C2)c1 (centres unmarked) [Compound 7e, 2,4-difluoro-N-(2-(1-methy1-1H-imidazol-4-ylsulfonyl)octahydrocyclopenta[c]pyrrol-4-yl)benzamide]
7 | 891 | Cn1cnc(S(=O)(=O)N2CC3CCC(NC(=O)c4ccc(Cl)c(Cl)c4)C3C2)c1 (centres unmarked) [Compound 7g, 3,4-dichloro-N-(2-(1-methyl-1H-imidazol-4-ylsulfonyl)octahydrocyclopenta[c]pyrrol-4-yl)benzamide]
8 | 630 | Cn1cnc(S(=O)(=O)N2CC3CCC(NC(=O)c4c(F)cccc4F)C3C2)c1 (centres unmarked) [Compound 7i, 2,6-difluoro-N-(2-(1-methy1-1H-imidazol-4-ylsulfonyl)octahydrocyclopenta[c]pyrrol-4-yl)benzamide]
9 | 101 | Cn1cnc(S(=O)(=O)N2CC3CCC(NC(=O)c4ccccc4Cl)C3C2)c1 (centres unmarked) [Compound 7b, 2-chloro-N-(2-(1-methyl-1H-imidazol-4-ylsulfonyl)octahydrocyclopenta[c]pyrrol-4-yl)benzamide]
10 | 78 | Cn1cnc(S(=O)(=O)N2CC3CCC(NC(=O)c4ccccc4C(F)(F)F)C3C2)c1 (centres unmarked) [Compound 7d, N-(2-(1-methyl-1H-imidazol-4-ylsulfonyl)octahydrocyclopenta[c]pyrrol-4-y1)-2-(trifluoromethyl)benzamide]

same assay, conditions: result in words; inhibition of [14C]-glycine uptake (10 μM), JAR cells, 3 h

Row | Potency (IC50) | Structure (SMILES)
11 | Inactive | Cn1cnc(S(=O)(=O)N2CC3CCC(NC(=O)c4ccc(Cl)cc4Cl)C3C2)c1 (centres unmarked) [Compound 5b, 2,4-dichloro-N-(2-(1-methyl-1H-imidazol-4-ylsulfonyl)octahydrocyclopenta[c]pyrrol-4-yl)benzamide]
